The source of these data is patent EP0604248A1, “Use of 5-methoxypsoralen for the treatment of AIDS” (Goupil, Jean-Jacques, priority 1992, dated 1994).

In assay [1] the test system is VIH-1. As to the kind of experiment: Residual infectivity of treated HIV-1 on MT4 cells (cytopathic effect, p25 antigen, reverse transcriptase activity). It counts as cell-based. The following applies: Human immunodeficiency virus 1, light or radiation study. The protocol: (§1) Cette étude a été réalisée en 2 étapes : • traitements du virus VIH-1 (ou HIV-1) par le 5-méthoxypsoralène (5-MOP) et les UVA. • étude de l'infectivité résiduelle des échantillons traités à l'aide des tests sur cellules MT4 et sur lymphocytes activés.
(§2) Le virus a été traité par 10 µg/ml de 5-MOP, puis exposé aux UVA (1 à 2 Joules/cm²) de la façon suivante: • 4 ml de virus VIH-1 ont été traités avec 40 µl de 5-MOP à 1 mg/ml puis exposés aux UVA (intensité de 1,5 mW/cm²) pendant 17 minutes (échantillon PUV 10), • l'irradiation aux UVA a été faite avec la lampe PUVA 200 WALDMANN en déposant les flacons contenant le virus sur un lit de glace, afin d'éviter au maximum l'échauffement.
Les témoins pour cette expérience ont été les suivants : • le virus VIH-1 utilisé, non traité (échantillon PUV 1), • 4 ml du virus utilisé, traité uniquement par 40 µl de DMSO, afin de vérifier une éventuelle toxicité due au DMSO (échantillon PUV 2), • le virus utilisé, traité avec 10 µg/ml de 5-MOP, mais sans irradiation UVA (échantillon PUV 6), • le virus utilisé, traité uniquement par irradiation UVA pendant 17 minutes à 1,5 mW/cm² (échantillon PUV 5), • le virus utilisé, sans traitement, gardé à la température de l'expérience, pendant toute la durée du traitement, afin de vérifier la perte d'infectivité due aux conditions de la manipulation (échantillon PUV 9). […]
(In general: Damage to the host cells serves as the signal in cytopathic effect assays.)

Assay [2] concerns VIH-1. As to the kind of experiment: Residual infectivity of treated HIV-1 on primary cultures of activated human lymphocytes (reverse transcriptase activity in supernatants, 28 days). The format is cell-based. The following applies: for log reduction at 10 µg/mL: Human immunodeficiency virus 1, Lymphocyte, light or radiation study. Here is the method:
as §1, §2
Les témoins pour cette expérience ont été les suivants : • le virus VIH-1 utilisé, non traité (échantillon PUV 1), • 4 ml du virus utilisé, traité uniquement par 40 µl de DMSO, afin de vérifier une éventuelle toxicité due au DMSO (échantillon PUV 2), • le virus utilisé, traité avec 10 µg/ml de 5-MOP, mais sans irradiation UVA (échantillon PUV 6), • le virus utilisé, traité uniquement par irradiation UVA pendant 17 minutes à 1,5 mW/cm² (échantillon PUV 5), • le virus utilisé, sans traitement, gardé à la température de l'expérience, pendant toute la durée du traitement, afin de vérifier la perte d'infectivité due aux conditions de la manipulation (échantillon PUV 9).
• a - Sur cellules MT4 : Des dilutions successives de chaque échantillon ont été testées en duplicata. 100 µl de chaque dilution ont été mis en contact 1 heure à 37°C avec 3.10⁵ cellules MT4 par puits de plaque COSTAR 24 puits. Les cellules ont été centrifugées afin d'éliminer le produit éventuellement toxique, puis resuspendues dans 1 ml du milieu de culture. Aux jours 3 et 6, 750 µl de surnageant ont été ôtés, remplacés par du milieu de culture frais et la concentration cellulaire ajustée à 3.10⁵ cellules par millilitre. Au jour 10, l'effet cytopathogène et la mortalité cellulaire ont été évalués par observation au microscope après coloration au bleu Trypan. Des dosages de l'activité transcriptase inverse ont été réalisés à partir des surnageants de culture conservés à chaque passage (jours 3, 6 et 10). • b - Sur lymphocytes humains activés : Un culot de 3.10⁶ lymphocytes préalablement stimulés à la PHA a été incubé avec 1 ml de chaque échantillon (de 10⁻¹ à 10⁻⁵ pour chaque échantillon, sauf pour l'échantillon PUV10 testé également non dilué) pendant 1 heure à 37°C. Puis les cellules ont été centrifugées et resuspendues à 10⁶ cellules par millilitre dans du milieu complet. Tous les 3 ou 4 jours, les cellules ont été comptées, réensemencées à 10⁶ cellules/ml et les surnageants conservés à -80°C. […]

Consider `COc1c2ccoc2cc2oc(=O)ccc12` [5-MOP, 5-méthoxypsoralène], for which the log reduction at 10 µg/mL in the assay with VIH-1 [1] (5-MOP seul à 10 µg/ml, no UVA (sample PUV6), versus control PUV9, read-out: perte d'infectivité) is 0.5; in the assay on VIH-1 [1] (5-MOP à 10 µg/ml et UVA (sample PUV10), versus control PUV9, read-out: réduction du titre infectieux), 2.5; in the assay with VIH-1 [2] (5-MOP à 10 µg/ml et UVA (sample PUV10, tested undiluted), activated human lymphocytes (PBL), read-out: inactivation virale), 3; in the assay with VIH-1 [2] (5-MOP à 10 µg/ml et UVA, overall conclusion, read-out: réduction du pouvoir infectieux du virus), about 3. Besides, in the assay with VIH-1 [2] (5-MOP seul, no UVA (control treatment), overall conclusion), the “réduction du pouvoir infectieux du virus” value is recorded as “sans effet”. The compound further gave a titre in the assay with VIH-1 [2] (5-MOP à 10 µg/ml et UVA (sample PUV10), activated human lymphocytes (PBL)) of 100 UI/ml.
